Values quoted from earlier work, collected in publication PMC6492937.

Test: not told

SMILES	log partition octanol / water [log10]
CCCCN1CCCCCC1=O	1.80
CCCCCCCCN1CCCCC1=O	3.41
CCCCCCCC(=O)N(C)C	2.59
CCCCCCN1CCCCCC1=O	2.91
CCCCCCCCC(=O)N(C)C	3.00
CCCCCCCCCCCCN1CCCCCC1=O	6.28
CCCCCCCCN1CCCC1=O	3.05
CCCCN1CCCCC1=O	1.39
CCCCCC(=O)N(C)C	1.36
CCCCCCN1CCCC1=O	2.1
CCCCCCC(=O)N(C)C	1.89
CCCCCCCCN1CCCCCC1=O	4.04
CCCCCCCCCC(=O)N1CC(O)CC1C(=O)NCC (stereo not drawn)	2.86
CCCCCCN1CCCCC1=O	2.3
CCCCN1CCCC1=O	1.02
